Test results as given in EP0476408A1, “Chemical conjugation of morpholino anthracyclines to antibodies” (RESEARCH CORPORATION TECHNOLOGIES, INC., priority 1990, dated 1992).

Test system: A-375 cells
Assay: Cytotoxicity of conjugate versus uncoupled drug, serial dilutions
Assay type: cell-based
Conditions: drug alone versus conjugate, Figure 6

**Q.** For COc1cccc2c1C(=O)c1c(O)c3c(c(O)c1C2=O)C[C@@](O)(C(=O)CO)C[C@@H]3O[C@H]1C[C@H](N2CCOCC2)[C@H](O)[C@H](C)O1 [MRA, morpholino doxorubicin], which cytotoxicity is on record?
**A.** The cytotoxicity was “Identical cytoxicity”.
